Data from US8992815B2, “Production of organic compound nanoparticles with high repetition rate ultrafast pulsed laser ablation in liquids” (IMRA America, Inc., priority 2010, dated 2015).
Where two headings read alike, the source gives them in different places.

How the values were obtained:
[1] = Solubility of curcumin in water and methanol; type: physicochemical
Excerpt: In a first experiment curcumin powder, purchased from Sigma Aldrich, was used as the organic source material. The curcumin powder was formed into a pellet of target material by compression in a 0.5 inch in diameter mold using three tons of pressure. The curcumin pellet was then ablated according to the present invention using deionized water as the liquid. The flow rate of the liquid in the container was about 80 milliliters per second. The curcumin pellet was ablated using an ultrafast pulsed laser having a wavelength of 1045 nanometers, using a pulse duration of 500 femtoseconds, a pulse energy of 1 microJoules, a power of 1 W and a pulse repetition rate of 1 MHz. The laser focus spot size was about 30 micrometers in diameter and the fluence is calculated at about 0.14 Joules/cm^2. The frequency of the vibrating mirror was 50 Hz with a 4 millimeter trace for 0.4 meters per second. […] The hydrocolloidal contains some large particles as evidenced by the spread of the peak and the background absorbance of the curve. The y-axis is the absorption and the x-axis is the wavelength. […] In addition, 0.1 milliliters of the curcumin nanoparticle hydrocolloidal prepared according to the present invention was mixed with 1.0 milliliters of methanol. […]

[2] = background statement; cited from earlier work

For `COc1cc(C=CC(=O)CC(=O)C=Cc2ccc(O)c(OC)c2)ccc1O` [curcumin, 1,7-bis(4-hydroxy-3-methoxyphenyl)-1,6-heptadiene-3,5-dione], the solubility in methanol ([1]; methanol, powder dissolved at 2.5×10^−5 M) is listed as “dissolvable in methanol”, the solubility in water ([1]; water) is listed as “does not dissolve in water” and the solubility in water [2] is listed as “not water soluble”.
